This is an account of results in patent US20050228019A1, “Enhancement of ampakine-Induced facilitation of synaptic responses by cholinesterase inhibitors” (priority 2004, published 2005).

The structures appear in SMILES notation. Where “and” joins values, the source holds several entries; their conditions need not be identical. Equal values may be shown once. Entries after “also recorded” stand apart in the source; their conditions may differ.

Experiment [1] deals with lateral perforant path EPSPs in hippocampal slices. The experiment is described as follows: Lateral perforant path EPSPs in hippocampal slices. Type of experiment: cell-based, Sprague-Dawley rats. The method, then: Hippocamlpal slice preparation: Hippocampal slices were prepared from male Sprague-Dawley rats, approximately 4-6 weeks of age. Rats were anesthetized with halothane and then sacrificed via decapitation. The brain was quickly removed and placed in icy, oxygenated artificial cerebrospinal fluid (ACSF) of the following composition for dissection (in mM): 124 NaCl, 3 KCl 1.25 KH2PO4, 5 MgSO4, 3.4 CaCl2, 10 D-glucose, 26 NaHCO3. A tissue block containing the hippocampus and surrounding tissue was prepared and glued to the stage of a vibrating tissue slicer (Leica VT1000; Bannockburn, Ill.). Slices were cut roughly perpendicular to the longitudinal axis of the hippocampus at a thickness of 350 μm. Slices were then immediately transferred to an interface recording chamber containing ACSF with the same constituents as described above except that the concentration of MgSO4 was lowered to 2.5 mM. Recording commenced after a recovery period that was ≧1 hour.
In vitro recording: Slices in the interface chamber were maintained at 32±1° C. and continuously perfused with oxygenated recording ACSF at a rate of 60 ml/hr. Additionally, warmed and humidified 95% O2/5% CO2 was blown into the chamber from above. The lateral perforant path was stimulated with twisted nichrome wire (65 μm) in the outer molecular layer of the dentate gyrus. A chloride-coated silver wire was placed in a single glass pipette filled with 2 M NaCl (˜5 MΩ resistance) for recording of field potentials. The recording electrode was also placed in the outer molecular layer of the dentate gyrus to sample the perforant path synapses. Stimulation intensity was adjusted to elicit responses that were typically 1-2 mV in amplitude and ≦50% of the maximal monophasic response. Evoked responses were recorded at 10 kHz using a differential AC amplifier (A-M Systems Model 1700; Carlsborg, Wash.). Baseline responses were monitored every 20 seconds for a minimum of 30 minutes, depending on the length of time necessary to achieve stability.
Drug application: AChE inhibitors enhance transmission at cholinergic synapses by blocking the enzyme that degrades the released transmitter acetylcholine. This causes acetylcholine to remain at relatively high concentrations for a longer period within the synapse and thereby exert a greater than normal effect on acetylcholine receptors. This greater than normal action on acetylcholine receptors can be partially mimicked by applying a compound that directly stimulates the receptors to a degree that is greater than that produced by normally released acetylcholine. […] The effect of each of these treatments on amplitude size and slope of the descending phase of the response waveform was continuously recorded online throughout the entirety of the experiment.

Experiment [2] concerns monosynaptic responses (field EPSPs) known to be mediated by AMPA receptors. The experiment is described as follows: Chronic recording of evoked field EPSPs in freely moving rats (brain area not specified). The format is in vivo, Long-Evans rats. The conditions noted are these: CX717 10 mg/kg ip alone. The method, then: (§1) Chronic recording preparation: Adult male Long-Evans rats with recording and stimulating electrodes chronically implanted into different areas of the brain known to subserve memory were used. The electrodes were stereotaxically inserted under pentobarbital anesthesia (65 mg/kg), using procedures essentially as described in earlier work (Stäubli and Xu, Journal of Neuroscience 15: 2445-2452, 1995; Stäubli and Scafidi, Journal of Neuroscience 17: 4820-4828, 1997). Briefly, monopolar stimulating electrodes (125 μm) were placed into the perforant path projections to hippocampal dentate gyrus and into the lateral olfactory tract projections to olfactory cortex. Following these steps, the leads of the electrodes were connected to a headstage that is permanently affixed to the rat's skull.
(§2) The animals were allowed approximately 10 days for recovery before being acclimated to a chronic recording cage (30×30×58 cm) and the attachment of a recording lead to their headstage. Biphasic stimulation pulses were provided by a digital stimulator that allows precise control of current intensity and pulse duration. […] The evoked responses were monitored on a storage oscilloscope and digitized at 10 kHz. The peak amplitude, half-width and area of each response were measured on-line and stored on disk for off-line analysis. […]

Experiment [3] has as its system lateral olfactory tract (LOT) evoked responses. The experiment is described as follows: Lateral olfactory tract (LOT) evoked responses in awake rats. The format is in vivo, Long-Evans rats. The method, then:
as §1
The animals were allowed approximately 10 days for recovery before being acclimated to a chronic recording cage (30×30×58 cm) and the attachment of a recording lead to their headstage. Biphasic stimulation pulses were provided by a digital stimulator that allows precise control of current intensity and pulse duration. Current intensity (10-80 μA) and pulse width (100-150 μsec) were adjusted to produce an evoked field excitatory postsynaptic potential (evoked fEPSP) that is 50-60% of the maximum amplitude of the population spike-free response which typically ranges between 3 and 7 mV. Recording signals were pre-amplified 10× via a FET operational amplifier built into the recording lead and fed into a second stage amplifier set to a gain of 10, with a band-pass of 1 Hz to 5 kHz. The evoked responses were monitored on a storage oscilloscope and digitized at 10 kHz. The peak amplitude, half-width and area of each response were measured on-line and stored on disk for off-line analysis. Baseline evoked EPSPs were tested at 20 sec intervals for a minimum of 30 to 45 min, or until stable (<10% variability in amplitude). The animal was free to move around the cage throughout the experiment, but was not allowed to fall asleep.
Drug Testing: Once baseline stability was established over at least 30 min, the animal was given an intraperitoneal injection of 1) Ampakine compound alone (e.g., CX717 at 10 mg/kg), or 2) acetylcholinesterase (AChE) inhibitor alone (e.g., physostigmine at 0.1 mg/kg, tacrin at 1 mg/kg, galantamine at 1 mg/kg or donezepil at 1.5 mg/kg) or 3) Ampakine compound plus AChE inhibitor combined, both administered at the same time and at the same dose as when given alone. Each rat received each of these three treatments, but only one treatment was given per day, with several days separating successive treatments. The effect of each of these treatments on amplitude size, halfwidth and area of the field EPSP was continuously recorded for several hours after injection.

The test system of experiment [4] is perforant path evoked responses in the dentate gyrus. The experiment is described as follows: Perforant path evoked responses in the dentate gyrus of awake rats. The format is in vivo, Long-Evans rats. Here is the method:
as §1, §2

[5] abbreviates: CX717 10 mg/kg co-administered ip with physostigmine 0.1 mg/kg.

As to `C[N+](C)(C)CCOC(N)=O` [CCh, carbachol], in experiment [1] (CCh 0.5 μM alone, 20-30 minutes after the start of infusion), the EPSP amplitude was 99.8±2.9 % of baseline. For the same compound, the “effect on lateral perforant path EPSPs (amplitude or slope)” value in experiment [1] (CCh 0.5 μM by itself) is on record as “no discernible effects; also recorded: did not detectably affect synaptic transmission; also recorded: did not affect the amplitude or slope of evoked responses”.
On to `O=C(c1ccc2nonc2c1)N1CCOCC1` [CX717], for which the “increase in amplitude of field EPSP” value in experiment [2] is recorded as 5+1%. For the same compound, the “LOT effect relative to CX717 alone” value in experiment [3] (setting [5]) is “several times greater than the effects it produced on its own; also recorded: approximately three-fold greater”; in experiment [3] (CX717 10 mg/kg co-injected ip with Aricept 1.5 mg/kg), “several times greater than the effects it produced on its own; also recorded: approximately two-fold greater”; in experiment [3] (CX717 10 mg/kg co-injected ip with tacrine 1 mg/kg), “several times greater than the effects it produced on its own; also recorded: more than two times greater”. Moreover, the “increase in LOT response amplitude above baseline” value in experiment [3] (setting [5]) is given as 20-30%. The “increase in LOT response amplitude” value in experiment [3] (CX717 10 mg/kg ip alone, 10 mg/kg) was ~5% and < 10%. Also, in experiment [4] (CX717 10 mg/kg co-injected ip with physostigmine 0.1 mg/kg), the “perforant path effect relative to CX717 alone” value is listed as “significantly higher than the effects of CX717 alone”. In addition, the “increase in perforant path evoked responses on co-administration” value in experiment [4] (CX717 with galantamine 1 mg/kg, data not shown) was “Effects of this kind were also obtained”. The response amplitude in experiment [1] (CX717 40 μM alone, 30 min infusion, last 10 minutes of drug infusion) is recorded as 103.5±1.0 % of baseline. In experiment [1] (CX717 40 μM in the presence of 0.5 μM CCh), the “increase in response size relative to CX717 alone” value is on record as “several fold greater; also recorded: significantly greater than those observed in the absence of CCh”.
